Earlier results as cited in patent US20050070607A1, “N-acetylcysteine compositions and methods for the treatment and prevention of cysteine/glutathione deficiency in diseases and conditions” (priority 2003, published 2005).

Experiments:
chronic renal failure = details: regular users consuming >=1.4 g/day on average, absence of aspirin use; Fored[184]
acute lung injury = details: RBC GSH, days of acute lung injury, cardiac index; NAC 70 mg/kg q 8 hr IV; OTZ 63 mg/kg q 8 hr IV; n 48; 10 days; Bernard 1997[222]
HIV infected individuals = details: whole blood GSH; OTC 1500-3000 mg/day po; n 37; 4 weeks; Barditch-Crovo 1998[283]
human atherosclerosis = details: brachial artery flow-mediated dilation; 4.5 g OTC po; n 48; 4 hours; Vita 1998[15]
Cystic Fibrosis (CF) = details: air trapping and FEV1; NAC or Ambroxol 200 mg 3 times daily; n 36; 12 weeks; Ratjen 1985[274]

Q: For `CC(=O)Nc1ccc(O)cc1` [acetaminophen], which “relative risk of chronic renal failure” value (chronic renal failure) is on record?
A: Its value is 5.3.

Q: With `O=C1N[C@H](C(=O)O)CS1` [OTZ] as the compound, how does the Beneficial effects (acute lung injury) read?
A: The Beneficial effects was “Beneficial”.

Q: For `O=C1N[C@H](C(=O)O)CS1` [OTC, L-2-oxothiazolidine-4-carboxylic acid], which Beneficial effects (HIV infected individuals) is on record?
A: The Beneficial effects was “Beneficial”.

Q: And the Beneficial effects (human atherosclerosis)?
A: The Beneficial effects was “Beneficial”.

Q: For `Nc1c(Br)cc(Br)cc1CN[C@H]1CC[C@H](O)CC1` [Ambroxol], which Beneficial effects (Cystic Fibrosis (CF)) is on record?
A: The Beneficial effects was “Beneficial”.

Q: Which results are given for `CSCC[C@H](N)C(=O)O` [methionine]?
A: Hearing loss and cochlear damage from aminoglycoside antibiotics and cisplatin (cochlea; animal models [245-247]): greatly reduced; permanent cochlear damage due to acute acoustic overexposure (cochlea; animal models, systemic administration [246,248]): almost completely prevented
